{"source": "patent US8512769B2", "about": "“Valerian extract preparation” (priority 2006, dated 2013)", "system": "male CD rats", "assay": "Forced swimming test (FST) for antidepressive effect", "format": "in vivo", "settings": "1 mg/kg", "excerpt": "A more specific test for antidepressive activity is provided by the forced swimming test (FST) developed by Porsolt (Porsolt et al., 1978. Behavioural despair in rats: a new model sensitive to antidepressant treatments, Eur. J. Pharmacol. 47, 379-391).\nIn a so-called “forced swimming test”, the test animals (rats) are challenged by a stress situation from which they cannot escape by their own efforts. For this purpose, rats are at first left in a water-filled glass cylinder for a time of 15 minutes in a preliminary test (conditioning) one day before the actual test. The filling level is matched to the animals' body weight, so that every animal can support itself with the paws and tail and can keep its nose above water with minimum swimming movements. […] Twenty-four hours after this preliminary test, the test with valerian extract is performed in which the rats are again inserted into the water cylinders and the duration of immobility over a period of 5 minutes is cumulatively recorded.\nFor testing the valerian formulations on male CD rats, a pretreatment was used for 16 days, and the formulation according to Example 2b) was employed. […] The experiment was recorded by means of a video camera, and the time of immobility of the animals was later detected manually on the screen."}
{"smiles": "CN1C(=O)CN=C(c2ccccc2)c2cc(Cl)ccc21", "note": "[Diazepam]", "values": [{"measurement": "Shortening of immobility time as compared to the control group", "value": 28, "unit": "%"}]}
